The subject of data set [1] is dogs, 24 hours after a two-step coronary ligature. Description: two-step coronary ligature on the dog (Harris model). The data set is classed as in vivo. The following applies: for ectopic contractions in percent/min. / total number of heart contractions/min.: average value; for effective action in minutes (duration of action), Harris dog: i.v. at the effective dose, dogs, 24 hours after two-step coronary ligature.
Protocol: Dose is the effective dose in mg/kg, as well as the duration of action in minutes in dogs, 24 hours after a two-step coronary ligature.

In data set [2] the test system is CaCl2 arrhythmia of the rat. The experiment in a line: CaCl2 arrhythmia of the rat (antifibrillatory effect). The following applies: ratio LD50 iv./ED50 iv. On the procedure: The data is analyzed by the Probit regression analysis with a confidence interval of p=0.05 (values in parentheses).
Q is the ratio of LD50 iv. /ED50 iv. to determine therapeutic breadth range.

A further data set is described as follows: in vivo. The following applies: rat, iv, i.v. tail vein, Wistar rats, parentheses = confidence interval p=0.05, read-out: LD50 i.v., acute toxicity of the rat.
Data set [3] relates to dogs, 24 hours after a two-step coronary ligature. The following applies: quinidine, cited from earlier work.

The source of these data is patent US5264432A, “5-(1-aminoacyl)-5,10-dihydro-11H-dibenzo[b,e](1,4)diazepin-11-ones” (Arzneimittelwerk Dresden G.m.b.H, priority 1989, dated 1993).

Counter-ions that a name gives are not always drawn. Like-named read-outs stand apart in the source and are kept apart here.

Protocol for in vivo: The data were analyzed by the Probit regression analysis with a confidence interval of p=0.05 (values in parentheses).

Consider `CCN(CC)CC(=O)Nc1c(C)cccc1C` [Lidocaine, reference compound], for which the “ectopic contractions in percent/min.” value in data set [1] (5 mins, 0.02 mmol/kg (5.4 mg/kg)) came out at 34 percent/min. Also, the “ectopic contractions in percent/min.” value in data set [1] (30 mins, 0.02 mmol/kg (5.4 mg/kg)) amounted to 78 percent/min. In addition, in data set [1] (dog, Harris), the “ectopic arrhythmia / ectopy rate (in words)” value is “decrease in the ectopic arrhythmia” and the “total number of heart contractions (in words)” value is recorded as “decrease in the total number of heart contractions”. The “effective action in minutes (duration of action), Harris dog” value (“effective action in minutes” for short) in data set [1] was 15 min.
What is called LD50 is the dose expected to kill half of the subjects tested. On to `CCN(CC)CCCC(=O)N1c2ccc(Cl)cc2NC(=O)c2ccccc21` [Example 4, 8-Chloro-5-(4-diethylamino-butyryl)-5,10-dihydro-11H-dibenzo(b,e)(1,4)-diazepine-11-one], for which the “Q = LD50/ED50 (therapeutic breadth)” value in data set [2] worked out at 1614. The median lethal dose (LD50) in the data set “in vivo” stood at 71 mg/kg. Moreover, the “total number of heart contractions/min.” value is 180 min⁻¹ in data set [1] (30 mins., 0.005 mmol/kg) and 183 min⁻¹ in data set [1] (120 mins., 0.005 mmol/kg). Besides, in data set [1], the “effective action in minutes” value amounted to 30 min.
For the molecule `CN(C)CCCCCC(=O)N1c2ccccc2NC(=O)c2ccccc21` [Example 1, 5-(6-Dimethylamino-capronyl)-5,10-dihydro-11H-dibenzo(b,e)(1,4)-diazepine-11-one.HCl], in data set [2], the “Q = LD50/ED50 (therapeutic breadth)” value was 207. For the same molecule, the 50% lethal dose (LD50) in “in vivo” came to 85 mg/kg. Moreover, the “ectopic contractions in percent/min.” value in data set [1] (5 mins, 0.005 mmol/kg) is on record as 30 percent/min; in data set [1] (30 mins, 0.005 mmol/kg), 47 percent/min; in data set [1] (60 mins, 0.005 mmol/kg), 54 percent/min; in data set [1] (120 mins, 0.005 mmol/kg) it was 68 percent/min; in data set [1] (180 mins, 0.005 mmol/kg), 80 percent/min. For the same molecule, the “effective action in minutes” value in data set [1] is 60 min.
Regarding `C=C[C@H]1C[N@@]2CC[C@H]1C[C@@H]2[C@@H](O)c1ccnc2ccc(OC)cc12` [Quinidine], the “Harris dog effective dose” value in data set [3] (i.v., reference [1] Mokler and Arman 1962) was 10.0 mg/kg. Moreover, the “effective action in minutes” value in data set [3] (i.v., reference [1]) was 15 min. For the same molecule, in data set [3] (reference [1]), the “ectopic arrhythmia (in words)” value is recorded as “decrease in the ectopic arrhythmia” and the “total number of heart contractions (in words)” value is reported as “decrease in the total number of heart contractions”.
“5-(4-Diethylamino-butyryl)-5,10-dihydro-11H-dibenzo(b,e)(1,4)-diazepine-11- one [Example 2]”: the “ectopic contractions in percent/min.” value was 26 percent/min in data set [1] (5 mins, 0.005 mmol/kg); 24 percent/min in data set [1] (30 mins, 0.005 mmol/kg); 75 percent/min in data set [1] (60 mins, 0.005 mmol/kg); 90 percent/min in data set [1] (120 mins, 0.005 mmol/kg); 88 percent/min in data set [1] (base, 0.005 mmol/kg).
As to `O=C1Nc2cc(Cl)ccc2N(C(=O)CCCCCCN2CCOCC2)c2ccccc21` [Example 9, 8-Chloro-5-(7-N-morpholino-enanthoyl)-5,10-dihydro-11H-dibenzo(b,e)(1,4)-diazepine-11-one], the “Q = LD50/ED50 (therapeutic breadth)” value in data set [2] is reported as 256. Also, the median lethal dose (LD50) in “in vivo” was 41 mg/kg. Moreover, the “ectopic contractions in percent/min.” value in data set [1] (5 mins, 0.005 mmol/kg) came out at 21 percent/min; in data set [1] (30 mins, 0.005 mmol/kg), 38 percent/min; in data set [1] (60 mins, 0.005 mmol/kg) it was 42 percent/min; in data set [1] (120 mins, 0.005 mmol/kg), 42 percent/min; in data set [1] (180 mins, 0.005 mmol/kg), 73 percent/min; in data set [1] (300 mins, 0.005 mmol/kg), 79 percent/min. The “ectopic contractions in percent/min.” value in data set [1] (360 mins, 0.005 mmol/kg) was determined as 89 percent/min. Also, the “total number of heart contractions/min.” value came out at 156 min⁻¹ in data set [1] (120 mins., 0.005 mmol/kg) and 180 min⁻¹ in data set [1] (360 mins., 0.005 mmol/kg). The “effective action in minutes” value in data set [1] turned out to be 120 min.
As for `CCN(CC)CCCCCC(=O)N1c2ccc(Cl)cc2NC(=O)c2ccccc21` [Example 6, 8-Chloro-5-(6-diethylamino-capronyl)-5,10-dihydro-11H-dibenzo(b,e)(1,4)-diazepine-11-one], the “Q = LD50/ED50 (therapeutic breadth)” value in data set [2] was determined as 86. Further, the median lethal dose (LD50) in “in vivo” worked out at 38 mg/kg. Besides, the “total number of heart contractions/min.” value in data set [1] (5 mins., 0.005 mmol/kg) is 170 min⁻¹. Moreover, the “ectopic contractions in percent/min.” value was 20 percent/min in data set [1] (5 mins, 0.005 mmol/kg); 4 percent/min in data set [1] (30 mins, 0.005 mmol/kg); 37 percent/min in data set [1] (60 mins, 0.005 mmol/kg); 76 percent/min in data set [1] (120 mins, 0.005 mmol/kg). The “effective action in minutes” value in data set [1] stood at 60 min.
